Laboratory results published in patent US8530490B2, “Uracil compound or salt thereof having human deoxyuridine triphosphatase inhibitory activity” (Taiho Pharmaceutical Co., Ltd., priority 2008, dated 2013).

Molecular target: human dUTPase (Homo sapiens (Human), UniProt P33316)
Test: Human dUTPase inhibitory effect: production of [5-3H]dUMP from [5-3H]dUTP, measured by HPLC with flow scintillation
Type: biochemical
Settings: [5-3H]dUMP production from [5-3H]dUTP, 37° C., 15 minutes
Experimental: The inhibitory activity of the compound of the present invention against human dUTPase was determined by measuring the production of [5-^3H]deoxyuridine monophosphate (hereinafter, referred to as [5-^3H]dUMP) from [5-^3H]deoxyuridine triphosphate (hereinafter, referred to as [5-^3H]dUTP) according to a method shown below.
Specifically, 0.2 mL in total of a solution containing 0.02 mL of 1 μM dUTP (including 588 Bq/mL [5-3H]dUTP), 0.05 mL of a 0.2 M Tris buffer solution (pH 7.4), 0.05 mL of 16 mM magnesium chloride, 0.02 mL of 20 mM 2-mercaptoethanol, 0.02 mL of a 1% aqueous solution of fetal bovine serum-derived albumin, 0.02 mL of varying concentrations of test compound solutions or pure water as a control, and 0.02 mL of a solution of human dUTPase (expressed using E. coli and purified) was reacted at 37° C. for 15 minutes. Immediately after the reaction, the solution was heated at 100° C. for 1 minute to terminate the reaction, followed by centrifugation at 15000 rpm for 2 minutes. An aliquot (150 μL) of the supernatant thus obtained by centrifugation was analyzed using an Atlantis dC18 column (manufactured by Waters Corp., 4.6×250 mm) and a high-performance liquid chromatograph (manufactured by Shimadzu Corp., Prominence). Elution was performed at a flow rate of 0.8 mL/min for 30 minutes by a concentration gradient from a 4:6 mixed solution of a mobile phase A (10 mM potassium dihydrogen phosphate (pH 6.7), 10 mM tetrabutylammonium, and 0.25% methanol) and a mobile phase B (50 mM potassium dihydrogen phosphate (pH 6.7), 5.6 mM tetrabutylammonium, and 30% methanol) to the mobile phase B. The eluate was mixed with a scintillator (manufactured by PerkinElmer Co., Ltd., Ultima-Flo AP) at a 1:2 ratio, and the radioactivity of the produced [5-^3H]dUMP (RT 10.2 min) was measured using Radiomatic Flow Scintillation Analyzer (manufactured by PerkinElmer Co., Ltd., 525TR).
The inhibitory activity of the test compound was determined according to the formula shown below.

Sequence of human dUTPase (P33316 94-252): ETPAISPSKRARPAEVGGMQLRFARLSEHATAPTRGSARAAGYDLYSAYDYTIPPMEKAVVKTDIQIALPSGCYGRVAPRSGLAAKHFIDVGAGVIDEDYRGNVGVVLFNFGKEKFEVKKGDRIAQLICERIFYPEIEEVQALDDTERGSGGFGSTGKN

Row | SMILES | IC50 [µM]
1 | CC[C@@H](NS(=O)(=O)CCCOCn1ccc(=O)[nH]c1=O)c1cccc(OCC2CC2)c1 [Example 27, (R)—N-(1-(3-(cyclopropylmethoxy)phenyl)propyl)-3-((2,4-dioxo-3,4-dihydropyrimidin-1(2H)-yl)methoxy)propane-1-sulfonamide] | 0.04
2 | CC(C)(NS(=O)(=O)CCCOCn1ccc(=O)[nH]c1=O)c1ccc(F)c(OCC2CC2)c1 [Example 28, N-(2-(3-(cyclopropylmethoxy)-4-fluorophenyl)propan-2-yl)-3-((2,4-dioxo-3,4-dihydropyrimidin-1(2H)-yl)methoxy)propane-1-sulfonamide] | 0.36
3 | O=c1ccn(COCCCS(=O)(=O)NC(c2ccccc2)c2cccc(OCC3CCC3)c2)c(=O)[nH]1 (stereo not drawn) [Example 29, N-((3-(cyclobutylmethoxy)phenyl)(phenyl)methyl)-3-((2,4-dioxo-3,4-dihydropyrimidin-1(2H)-yl)methoxy)propane-1-sulfonamide] | 0.89
4 | O=c1ccn(COCCCS(=O)(=O)NC(c2cccc(OCC3CC3)c2)C2CC2)c(=O)[nH]1 (stereo not drawn) [Example 30, N-(cyclopropyl(3-(cyclopropylmethoxy)phenyl)methyl)-3-((2,4-dioxo-3,4-dihydropyrimidin-1(2H)-yl)methoxy)propane-1-sulfonamide] | 0.36
5 | CC(C)C(NS(=O)(=O)CCCOCn1ccc(=O)[nH]c1=O)c1cccc(OCC2CC2)c1 (stereo not drawn) [Example 31, N-(1-(3-(cyclopropylmethoxy)phenyl)-2-methylpropyl)-3-((2,4-dioxo-3,4-dihydropyrimidin-1(2H)-yl)methoxy)propane-1-sulfonamide] | 0.33
6 | CC(NS(=O)(=O)CCCOCn1ccc(=O)[nH]c1=O)c1cccc(OC2CCCC2)c1 (stereo not drawn) [Example 32, N-(1-(3-(cyclopentyloxy)phenyl)ethyl)-3-((2,4-dioxo-3,4-dihydropyrimidin-1(2H)-yl)methoxy)propane-1-sulfonamide] | 0.14
7 | O=c1ccn(COCCCS(=O)(=O)NCc2cccc(OC3CC3)c2)c(=O)[nH]1 [Example 33, N-(3-cyclopropoxybenzyl)-3-((2,4-dioxo-3,4-dihydropyrimidin-1(2H)-yl)methoxy)propane-1-sulfonamide] | 1.13
8 | CCC(NS(=O)(=O)CCCOCn1ccc(=O)[nH]c1=O)c1ccc(F)c(OCC2CC2)c1 (stereo not drawn) [Example 34, N-(1-(3-(cyclopropylmethoxy)-4-fluorophenyl)propyl)-3-((2,4-dioxo-3,4-dihydropyrimidin-1(2H)-yl)methoxy)propane-1-sulfonamide] | 0.03
9 | CC(C)[C@H](NS(=O)(=O)CCCOCn1ccc(=O)[nH]c1=O)c1ccc(F)c(OCC2CC2)c1 [Example 35, (S)—N-(1-(3-(cyclopropylmethoxy)-4-fluorophenyl)-2-methylpropyl)-3-((2,4-dioxo-3,4-dihydropyrimidin-1(2H)-yl)methoxy)propane-1-sulfonamide] | 1.55
10 | CC(NS(=O)(=O)CCCOCn1ccc(=O)[nH]c1=O)c1ccc(F)c(OCC2CC2)c1 (stereo not drawn) [Example 36, N-(1-(3-(cyclopropylmethoxy)-4-fluorophenyl)ethyl)-3-((2,4-dioxo-3,4-dihydropyrimidin-1(2H)-yl)methoxy)propane-1-sulfonamide] | 0.15
11 | O=c1ccn(COCCCS(=O)(=O)N[C@H](c2ccc(F)cc2)c2ccc(F)c(OCC3CC3)c2)c(=O)[nH]1 [Example 37, (R)—N-((3-(cyclopropylmethoxy)-4-fluorophenyl)(4-fluorophenyl)methyl)-3-((2,4-dioxo-3,4-dihydropyrimidin-1(2H)-yl)methoxy)propane-1-sulfonamide] | 0.1
12 | O=c1ccn(COCCCS(=O)(=O)N[C@@H](c2ccc(F)c(OCC3CC3)c2)c2cccs2)c(=O)[nH]1 [Example 38, (S)—N-((3-(cyclopropylmethoxy)-4-fluorophenyl)(thiophen-2-yl)methyl)-3-((2,4-dioxo-3,4-dihydropyrimidin-1(2H)-yl)methoxy)propane-1-sulfonamide] | 0.03
13 | O=c1ccn(COCCCS(=O)(=O)NC2(c3cccc(OCC4CC4)c3)CCCC2)c(=O)[nH]1 [Example 39, N-(1-(3-(cyclopropylmethoxy)phenyl)cyclopentyl)-3-((2,4-dioxo-3,4-dihydropyrimidin-1(2H)-yl)methoxy)propane-1-sulfonamide] | 0.28
14 | O=c1ccn(COCCCS(=O)(=O)N[C@@H](c2ccc(F)c(OCC3CC3)c2)C2CC2)c(=O)[nH]1 [Example 40, (R)—N-(cyclopropyl (3-(cyclopropylmethoxy)-4-fluorophenyl)methyl)-3-((2,4-dioxo-3,4-dihydropyrimidin-1(2H)-yl)methoxy)propane-1-sulfonamide] | 0.1
15 | CC[C@@H](NS(=O)(=O)CCCOCn1ccc(=O)[nH]c1=O)c1cccc(OC2CCCC2)c1 [Example 41, (R)—N-(1-(3-(cyclopentyloxy)phenyl)propyl)-3-((2,4-dioxo-3,4-dihydropyrimidin-1(2H)-yl)methoxy)propane-1-sulfonamide] | 0.04
16 | O=c1ccn(COCCCS(=O)(=O)N[C@@H](c2cccc(OC3CCCC3)c2)C2CC2)c(=O)[nH]1 [Example 42, (R)—N-((3-(cyclopentyloxy)phenyl)(cyclopropyl)methyl)-3-((2,4-dioxo-3,4-dihydropyrimidin-1(2H)-yl)methoxy)propane-1-sulfonamide] | 0.33
17 | CC[C@@H](NS(=O)(=O)CCCOCn1ccc(=O)[nH]c1=O)c1cccc(OC2CC2)c1 [Example 43, (R)—N-(1-(3-cyclopropoxyphenyl)propyl)-3-((2,4-dioxo-3,4-dihydropyrimidin-1(2H)-yl)methoxy)propane-1-sulfonamide] | 0.09
18 | O=c1ccn(COCCCS(=O)(=O)NCc2ccc(F)c(OC3CCCC3)c2)c(=O)[nH]1 [Example 44, N-(3-(cyclopentyloxy)-4-fluorobenzyl)-3-((2,4-dioxo-3,4-dihydropyrimidin-1(2H)-yl)methoxy)propane-1-sulfonamide] | 0.16
19 | O=c1ccn(COCCCS(=O)(=O)NCc2cccc(OC3CCCCC3)c2)c(=O)[nH]1 [Example 45, N-(3-(cyclohexyloxy)benzyl)-3-((2,4-dioxo-3,4-dihydropyrimidin-1(2H)-yl)methoxy)propane-1-sulfonamide] | 2.01
20 | O=c1ccn(COCCCS(=O)(=O)NCc2cccc(OC3CCOCC3)c2)c(=O)[nH]1 [Example 46, 3-((2,4-dioxo-3,4-dihydropyrimidin-1(2H)-yl)methoxy)-N-(3-(tetrahydro-2H-pyran-4-yloxy)benzyl)propane-1-sulfonamide] | 2.35
21 | C[C@@H](NS(=O)(=O)CCCOCn1ccc(=O)[nH]c1=O)c1cccc(OC2CCOCC2)c1 [Example 47, (R)-3-((2,4-dioxo-3,4-dihydropyrimidin-1(2H)-yl)methoxy)-N-(1-(3-(tetrahydro-2H-pyran-4-yloxy)phenyl)ethyl)propane-1-sulfonamide] | 0.21
22 | C[C@@H](NS(=O)(=O)CCCOCn1ccc(=O)[nH]c1=O)c1ccc(F)c(OC2CCOCC2)c1 [Example 48, (R)-3-((2,4-dioxo-3,4-dihydropyrimidin-1(2H)-yl)methoxy)-N-(1-(4-fluoro-3-(tetrahydro-2H-pyran-4-yloxy)phenyl)ethyl)propane-1-sulfonamide] | 0.14
23 | C[C@@H](NS(=O)(=O)CCCOCn1ccc(=O)[nH]c1=O)c1cccc(O[C@H]2CCOC2)c1 [Example 49, 3-((2,4-dioxo-3,4-dihydropyrimidin-1(2H)-yl)methoxy)-N—((R)-1-(3-((S)-tetrahydrofuran-3-yloxy)phenyl)ethyl)propane-1-sulfonamide] | 0.94
24 | C[C@@H](NS(=O)(=O)CCCOCn1ccc(=O)[nH]c1=O)c1cccc(OC(F)(F)C(F)F)c1 [Example 51, (R)-3-((2,4-dioxo-3,4-dihydropyrimidin-1(2H)-yl)methoxy)-N-(1-(3-(1,1,2,2-tetrafluoroethoxy)phenyl)ethyl)propane-1-sulfonamide] | 0.83
25 | C[C@@H](NS(=O)(=O)CCCOCn1ccc(=O)[nH]c1=O)c1cccc(OCC(C)(C)C)c1 [Example 52, (R)-3-((2,4-dioxo-3,4-dihydropyrimidin-1(2H)-yl)methoxy)-N-(1-(3-(neopentyloxy)phenyl)ethyl)propane-1-sulfonamide] | 0.51
26 | C[C@@H](NS(=O)(=O)CCCOCn1ccc(=O)[nH]c1=O)c1cccc(OCC(F)(F)F)c1 [Example 53, (R)-3-((2,4-dioxo-3,4-dihydropyrimidin-1(2H)-yl)methoxy)-N-(1-(3-(2,2,2-trifluoroethoxy)phenyl)ethyl)propane-1-sulfonamide] | 0.23
27 | C[C@@H](NS(=O)(=O)CCCOCn1ccc(=O)[nH]c1=O)c1ccc(F)c(OCC(F)(F)F)c1 [Example 54, (R)-3-((2,4-dioxo-3,4-dihydropyrimidin-1(2H)-yl)methoxy)-N-(1-(4-fluoro-3-(2,2,2-trifluoroethoxy)phenyl)ethyl)propane-1-sulfonamide] | 0.23
